{"source": "patent US4939175A", "about": "“Use of N,N-dimethyl-1-[1-(4-chlorophenyl)cyclobutyl]-3-methylbutylamine” (priority 1988, dated 1990)", "key": {"[1]": {"tested_on": "circling behavior in rats with unilateral substantia nigra lesions", "experiment": "Circling behavior in rats with unilateral substantia nigra lesions", "type": "in vivo, Std: Wistar male rats", "conditions": "2 hours after, control 0.1 ± 0.4, **p < 0.01", "procedure": "Effect of the test samples on circling behavior in rats with unilateral substantia nigra lesions\nStd: Wistar male rats (8 heads/group) were used. The rat with unilateral substantia nigra lesions was made by injecting 8 μg/4 μl of 6-hydroxydopamine to the right side of substantia nigra.\nThe test sample was administered orally to the rat. At 2 hours later, the number of circling behavior per 10 minutes was counted.\nAmantadine was used as the reference drug and distilled water was used as control sample."}, "[2]": {"tested_on": "re-uptake of ^3 H-dopamine", "experiment": "Re-uptake of 3H-dopamine in vitro (synaptosomes, P2 fraction of whole brain)", "type": "biochemical, Std: Wistar strain male rat", "conditions": "Experiment I, rat brain synaptosomes, 37° C., 20 minutes", "procedure": "Effect of the test samples on the re-uptake of ^3 H-dopamine in vitro\nP2 fraction was prepared from the whole brain of Std: Wistar strain male rat. […] The obtained mixture was incubated at 37° C. for 20 minutes and then subjected to the suction filtration with Whatman GF/B filter paper.\nThe obtained filter paper was put in a vial containing 10 ml of toluene type scintillator and its radioactivity was measured by means of liquid scintillation counter. The amount of the specific re-uptake of ^3 H-dopamine was obtained by subtracting the amount of re-uptake at 0° C. as blank."}, "[3]": {"tested_on": "depletion of dopamine induced by MPTP in mice whole brain", "experiment": "animal or person", "type": "in vivo, SlC: ddy strain male mice", "conditions": "Mus musculus, po, 168 h, MPTP 50 mg/kg s.c., read-out: Percentage of the amount of dopamine in the treated group against the amount of dopamine in the non-treated group; for response vs control in vivo at 10 mg/kg: 10 mg/kg oral"}, "[4]": {"tested_on": "inhibition of conditioned avoidance response induced by reserpine in rats", "experiment": "Inhibition of conditioned avoidance response induced by reserpine in rats", "type": "in vivo, Std-Wistar male rats", "procedure": "Effect of the test samples on the inhibition of conditioned avoidance response induced by reserpine in rats\nStd-Wistar male rats (8 to 9 week age) weighing of 270 to 300 g were fed under the conditions of 23±2° C., 60±10% R.H. and artificial lighting from 7 AM to 7 PM for a week, and then subjected to the test.\nThe test was carried out by using a shuttle box. The shuttle box used herein was a rectangular box, which was equipped with a buzzer for conditioned stimulus at the upper part and grids of 2 mm in diameter, for non-conditioned stimulus, at intervals of 1 cm on the floor, and divided into two equal sized compartments by a hurdle of 5 cm in height.\nThe schedule for inducing the conditioned avoidance response was controlled by a computer, and all the observed results of avoidance or escape response were recorded automatically.\nThe avoidance condition was carried out as follows:\nAfter the conditioned stimulus of the buzzer with sound signal for 5 seconds, the non-conditioned stimulus of the foot shock was given for 5 seconds to rats. Each stimulus was stopped immediately, if the rat jumped over the hurdle to the other compartment during the conditioned or non-conditioned stimulus.\nThe above-mentioned rats were put on the trials for 25 times. Then the rats were given reserpine (1 mg/kg, intraperitoneally). The rats were tested for 15 times at the time of 18 to 20 hours after the reserpine administration, and then they were divided into several groups ([…]).\nThe test sample was dissolved in distilled water and administered orally to each group at 24 to 26 hours after the reserpine administration. For reference, distilled water as control sample, and amitriptyline and amantadine as test drugs were used.\nAt one hour after the test sample administration, the rats were put on the trials for 25 times and the conditioned avoidance responce was compared between the control group (distilled water administration), the test compound-administered group and the test drug-administered groups."}, "[5]": {"tested_on": "depletion of norepinephrine induced by 6-hydroxydopamine in rat heart", "experiment": "Depletion of norepinephrine induced by 6-hydroxydopamine in rat heart", "type": "in vivo, Std: Wistar male rats", "conditions": "6-hydroxydopamine 20 mg/kg i.p., control 20 ± 4, non-treatment 425 ± 49, **p < 0.01", "procedure": "Effect of the test samples on the depletion of norepinephrine induced by 6-hydroxydopamine in rat heart.\nThe test sample was administered orally to Std: Wistar male rats and after 30 minutes, 6-hydroxydopamine (20 mg/kg) was injected intraperitoneally.\nAt 16 hours after injection of 6-hydroxydopamine, the rats were killed. The whole heart was rapidly removed and homogenized in 0.05M perchloric acid with isoproterenol (10 mg/ml) as an internal standard. The homogenate was centrifuged and then the amount of norepinephrine in the supernatant was determined by means of high performance liquid chromatography with electrochemical detection.\nDesipramine was used as the reference drug and distilled water was used as control sample."}, "[6]": {"tested_on": "memory defect artificially induced by electroconvulsive shock in mice", "experiment": "Memory defect artificially induced by electroconvulsive shock in mice (step-through test)", "type": "in vivo, C 57 BL/6 male mice", "conditions": "ECS +; for Number of mice showing latency longer than 300 seconds: 1 hour before testing trial, 10 mice; for Amnestic syndrome rate: control ECS + 80, ECS - 40", "procedure": "[…]. The test was carried out by using a box divided into two rooms (light and dark). The dark room (23.5 cm in height, 12 cm in width and 24 cm in length) was surrounded by black inner walls and provided with a stainless steel bar on the floor to give the mouse an electric shock. The light room (triangular in shape with 15 cm in height, 13 cm in bottom side length and 12 cm in oblique-side length) was surrounded by transparent walls except for the partition wall, provided with a guillotine door (5 cm in height and 3 cm in width) at the center of the partition wall, and illuminated with a 100 Watt electric bulb at a position of 50 cm above the floor.\nThe test was carried out according to the procedures as follows:\nAfter the mouse was put in the light room, the guillotine door was opened. When the limbs of the mouse entered into the dark room, the door was closed. After keeping the mouse for 10 seconds in the dark room, it was brought back to the home cage.\nThe mouse was put in the light room at the time of 30 minutes after the taming trial, and then the guillotine door was opened. When the limbs of the mouse entered into the dark room, the door was closed and 0.4 mA of electric shock was applied to the limbs of the mouse for 3 seconds. Then, the mouse was brought back to the home cage.\nThe mouse was put in the light room at the time of 24 hours after the acquisition trial, and then the guillotine door was opened.\nElectroconvulsive shock (30 mA, 0.5 second) was applied to the mouse at its ears immediately after the acquisition trial, which caused tetany on the mouse. The mice, which survived after the righting reflex had disappeared,were subjected to the testing trial 24 hours later.\nThe test compound was dissolved in distilled water, and the solution was orally administered, in a dose shown in Table 1 to each group consisting of 10 heads at the time of one hour before the testing trial.\nThe testing trial (3) was conducted at one hour after the test compound administration, and the reaction latency was examined for each test mouse. The obtained results are shown in Table 1, and Amnestic syndrome rate (%) is expressed as follows: [formula]"}}, "note": "Like-named read-outs stand apart in the source and are kept apart here.", "data": [{"smiles": "CC(C)CC(N(C)C)C1(c2ccc(Cl)cc2)CCC1.Cl", "note": "(centres unmarked) [Test compound, N,N-dimethyl-1-[1-(4-chlorophenyl)cyclobutyl]3-methylbutylamine hydrochloride]", "values": [{"measurement": "Number of circling behavior per 10 min.", "setting": "[1]; 3 mg/kg oral", "result": "3.0 ± 2.9", "unit": "per 10 min."}, {"measurement": "Number of circling behavior per 10 min.", "setting": "[1]; 10 mg/kg oral", "result": "5.1 ± 4.4", "unit": "per 10 min."}, {"measurement": "IC50", "setting": "[2]", "result": 2000, "unit": "nM"}, {"measurement": "response vs control in vivo at 10 mg/kg", "setting": "[3]; Experiment I, control 71 ± 11, *P < 0.05, **P < 0.01", "result": "83 ± 12", "unit": "%"}, {"measurement": "response vs control in vivo at 30 mg/kg", "setting": "[3]; Experiment I, 30 mg/kg oral, control 71 ± 11, *P < 0.05, **P < 0.01", "result": "85 ± 6", "unit": "%"}, {"measurement": "response vs control in vivo at 10 mg/kg", "setting": "[3]; Experiment II, control 88 ± 20, *P < 0.05", "result": "111 ± 8", "unit": "%"}, {"measurement": "Conditioned avoidance response 1 hour after administration of the test sample", "setting": "[4]; 10 mg/kg oral, reserpine 1 mg/kg, control 2", "result": 82, "unit": "%"}, {"measurement": "Conditioned avoidance response before administration of reserpine", "setting": "[4]; baseline before test sample, 10 mg/kg group", "result": 90, "unit": "%"}, {"measurement": "Conditioned avoidance response 18 to 20 hours after administration of reserpine", "setting": "[4]; reserpine 1 mg/kg i.p., before test sample, 10 mg/kg group", "result": 2, "unit": "%"}, {"measurement": "Amount of Norepinephrine", "setting": "[5]; 0.625 mg/kg oral", "result": "169 ± 34", "unit": "ng/g"}, {"measurement": "Amount of Norepinephrine", "setting": "[5]; 1.25 mg/kg oral", "result": "247 ± 49", "unit": "ng/g"}, {"measurement": "Amount of Norepinephrine", "setting": "[5]; 2.5 mg/kg oral", "result": "306 ± 27", "unit": "ng/g"}, {"measurement": "Number of mice showing latency longer than 300 seconds", "setting": "[6]; 0.3 mg/kg oral", "result": 4}, {"measurement": "Amnestic syndrome rate", "setting": "[6]; 0.3 mg/kg oral", "result": 60, "unit": "%"}, {"measurement": "Number of mice showing latency longer than 300 seconds", "setting": "[6]; 1.0 mg/kg oral", "result": 3}, {"measurement": "Amnestic syndrome rate", "setting": "[6]; 1.0 mg/kg oral", "result": 70, "unit": "%"}, {"measurement": "Number of mice showing latency longer than 300 seconds", "setting": "[6]; 3.0 mg/kg oral", "result": 7}, {"measurement": "Amnestic syndrome rate", "setting": "[6]; 3.0 mg/kg oral", "result": 30, "unit": "%"}, {"measurement": "Number of mice showing latency longer than 300 seconds", "setting": "[6]; 10.0 mg/kg oral", "result": 9}, {"measurement": "Amnestic syndrome rate", "setting": "[6]; 10.0 mg/kg oral", "result": 10, "unit": "%"}]}]}
